Article PMC9604400, “Synthesis, Anticancer and Antitubercular Properties of New Chalcones and Their Nitrogen-Containing Five-Membered Heterocyclic Hybrids Bearing Sulfonamide Moiety” (International Journal of Molecular Sciences, 2022)
Marks after values point to notes of the source that are not given here.

Legend:
M. tuberculosis H37Rv = assay: Checkerboard synergism assay; format: cell-based, Mycobacterium tuberculosis; details: for MIC: Mycobacterium tuberculosis, H37RV, checkerboard, alone
Procedure: The synergism assays were carried out in 96-well plates with Middlebrook 7H9 medium supplemented with OADC.

[1] = test system: 60 human cancer cell lines; assay: NCI-60 screen (SRB), whole panel; format: cell-based; details: single dose 10 μM; for inhibition at 10 µM: Homo sapiens, mean over 60 cell lines, over 100% = cell death, read-out: Mean growth inhibition (GI) percentage
[2] = antibiotic in combination with 20a
[3] = antibiotic in combination with 20f

| Structure (SMILES) | melting point [°C] | inhibition at 10 µM [1] [%] | further results |
| --- | --- | --- | --- |
| COc1ccc(C(=O)/C=C/c2ccc(C)cc2)cc1S(=O)(=O)NNC(=O)c1ccncc1 | 250 to 252 | – | – |
| COc1ccc(C2=NN(C=O)C(c3ccc(Cl)cc3)C2)cc1S(=O)(=O)Nc1cccnc1 (stereo not shown) | 241 to 243 | – | – |
| COc1cc(OC)c(S(N)(=O)=O)cc1C1=NN(C=O)C(c2ccc(Cl)cc2)C1 (stereo not shown) | 269 to 271 | – | – |
| COc1ccc(C2=NN(C(C)=O)C(c3ccc(Cl)cc3)C2)cc1S(N)(=O)=O (stereo not shown) | 229 to 232 | – | – |
| COc1ccc(C2=NN(C=O)C(c3ccc(Cl)cc3)C2)cc1S(=O)(=O)NNC(=O)c1ccncc1 (stereo not shown) | 156 to 158 | – | – |
| COc1cc(OC)c(S(=O)(=O)NNC(=O)c2ccncc2)cc1C1=NN(C=O)C(c2ccc(Cl)cc2)C1 (stereo not shown) | 166 to 168 | – | – |
| COc1ccc(C2=NN(C(C)=O)C(c3ccc(Cl)cc3)C2)cc1S(=O)(=O)NNC(=O)c1ccncc1 (stereo not shown) | 146 to 148 | – | – |
| COc1ccc(C2=NN(C(N)=S)C(c3ccc(Cl)cc3)C2)cc1S(=O)(=O)Nc1cccnc1 (stereo not shown) | 236 to 238 | – | – |
| COc1cc(OC)c(S(=O)(=O)NNC(=O)c2ccncc2)cc1C1=NN(C(N)=S)C(c2ccc(Cl)cc2)C1 (stereo not shown) | 180 to 182 | – | – |
| NCC[C@H](O)C(=O)N[C@@H]1C[C@H](N)[C@@H](O[C@H]2O[C@H](CN)[C@@H](O)[C@H](O)[C@H]2O)[C@H](O)[C@H]1O[C@H]1O[C@H](CO)[C@@H](O)[C@H](N)[C@H]1O [AMK, amikacin, reference compound] | – | – | MIC (M. tuberculosis H37Rv): 1.5 µg/mL; FICI Index (M. tuberculosis H37Rv; [2]): 2.00; MIC Combination (M. tuberculosis H37Rv; [2]): 1.5 µg/mL; FICI Index (M. tuberculosis H37Rv; [3]): 2.00; MIC Combination (M. tuberculosis H37Rv; [3]): 1.5 µg/mL |
| COc1cc(OC)c(S(N)(=O)=O)cc1C(C)=O [Compound 8b, 5-Acetyl-2,4-dimethoxybenzenesulfonamide] | – | – | antiproliferative activity (in words) [1]: low antiproliferative activity |
| COc1ccc(C(C)=O)cc1S(=O)(=O)Nc1cccnc1 [Compound 10, 5-Acetyl-2-methoxy-N-(pyridin-3-yl)benzenesulfonamide] | – | 3.21 | antiproliferative activity (in words) [1]: low antiproliferative activity |
| COc1cc(OC)c(S(=O)(=O)N(CCCl)CCCl)cc1C(C)=O [Compound 12, 5-Acetyl-N,N-bis(2-chloroethyl)-2,4-dimethoxybenzenesulfonamide] | – | – | antiproliferative activity (in words) [1]: low antiproliferative activity |
| COc1ccc(C(C)=O)cc1S(=O)(=O)NNC(=O)c1ccncc1 [Compound 14a, 5-Acetyl-N’-isonicotinoyl-2-methoxybenzenesulfonohydrazide] | – | 2.09 | antiproliferative activity (in words) [1]: low antiproliferative activity |
| COc1cc(OC)c(S(=O)(=O)NNC(=O)c2ccncc2)cc1C(C)=O [Compound 14b, 5-Acetyl-N’-isonicotinoyl-2,4-dimethoxybenzenesulfonohydrazide] | – | – | antiproliferative activity (in words) [1]: low antiproliferative activity |
| COc1ccc(C(=O)C=Cc2ccccc2)cc1S(=O)(=O)Nc1cccnc1 [Compound 16a, 5-Cinnamoyl-2-methoxy-N-(pyridin-3-yl)benzenesulfonamide] | 229 to 230 | 16.5 | – |
| COc1ccc(C(=O)/C=C/c2ccc(Cl)cc2)cc1S(=O)(=O)Nc1cccnc1 [Compound 16b, (E)-5-(3-(4-Chlorophenyl)acryloyl)-2-methoxy-N-(pyridin-3-yl)benzenesulfonamide] | 256 to 258 | 17 | – |
| COc1ccc(C(=O)/C=C/c2ccc(C)cc2)cc1S(=O)(=O)Nc1cccnc1 [Compound 16c, (E)-2-Methoxy-N-(pyridin-3-yl)-5-(3-(p-tolyl)acryloyl)benzenesulfonamide] | 231 to 234 | 12.2 | – |
| COc1ccc(/C=C/C(=O)c2ccc(OC)c(S(=O)(=O)Nc3cccnc3)c2)cc1 [Compound 16d, (E)-2-Methoxy-5-(3-(4-methoxyphenyl)acryloyl)-N-(pyridin-3-yl)benzenesulfonamide] | 228 to 230 | 10.2 | – |

| Structure (SMILES) | melting point [°C] | inhibition at 10 µM [1] [%] | further results |
| --- | --- | --- | --- |
| COc1ccc(C(=O)/C=C/c2cc(OC)c(OC)c(OC)c2)cc1S(=O)(=O)Nc1cccnc1 [Compound 16e, (E)-2-Methoxy-N-(pyridin-3-yl)-5-(3-(3,4,5-trimethoxyphenyl)acryloyl)benzenesulfonamide] | 239 to 241 | 7.7 | – |
| COc1ccc(C(=O)/C=C/c2ccc3c(c2)OCO3)cc1S(=O)(=O)Nc1cccnc1 [Compound 16f, (E)-5-(3-(Benzo[d][1,3]dioxol-5-yl)acryloyl)-2-methoxy-N-(pyridin-3-yl)benzenesulfonamide] | 220 to 223 | 12.9 | – |
| COc1ccc(/C=C/C(=O)c2cc(S(N)(=O)=O)c(OC)cc2OC)cc1 [Compound 17d, (E)-2,4-Dimethoxy-5-(3-(4-methoxyphenyl)acryloyl)benzenesulfonamide] | 215 to 218 | 30 | – |
| COc1cc(OC)c(S(N)(=O)=O)cc1C(=O)/C=C/c1cc(OC)c(OC)c(OC)c1 [Compound 17e, (E)-2,4-Dimethoxy-5-(3-(3,4,5-trimethoxyphenyl)acryloyl)benzenesulfonamide] | 253 to 256 | 24.7 | – |
| COc1cc(OC)c(S(=O)(=O)N(CCCl)CCCl)cc1C(=O)C=Cc1ccccc1 [Compound 18a, N,N-bis(2-chloroethyl)-5-cinnamoyl-2,4-dimethoxybenzenesulfonamide] | 184 to 186 | – | – |
| COc1cc(OC)c(S(=O)(=O)N(CCCl)CCCl)cc1C(=O)/C=C/c1ccc(Cl)cc1 [Compound 18b, (E)-N,N-bis(2-Chloroethyl)-5-(3-(4-chlorophenyl)acryloyl)-2,4-dimethoxybenzenesulfonamide] | 186 to 187 | – | – |
| COc1cc(OC)c(S(=O)(=O)N(CCCl)CCCl)cc1C(=O)/C=C/c1ccc(C)cc1 [Compound 18c, (E)-N,N-bis(2-Chloroethyl)-2,4-dimethoxy-5-(3-(p-tolyl)acryloyl)benzenesulfonamide] | 186 to 189 | – | – |
| COc1ccc(/C=C/C(=O)c2cc(S(=O)(=O)N(CCCl)CCCl)c(OC)cc2OC)cc1 [Compound 18d, (E)-N,N-bis(2-Chloroethyl)-2,4-dimethoxy-5-(3-(4-methoxyphenyl)acryloyl)benzenesulfonamide] | 168 to 171 | – | – |
| COc1cc(OC)c(S(=O)(=O)N(CCCl)CCCl)cc1C(=O)/C=C/c1ccc2c(c1)OCO2 [Compound 18f, (E)-5-(3-(Benzo[d][1,3]dioxol-5-yl)acryloyl)-N,N-bis(2-chloroethyl)-2,4-dimethoxybenzenesulfonamide] | 193 to 196 | – | – |
| COc1ccc(C(=O)/C=C/c2ccc(Cl)cc2)cc1S(=O)(=O)NNC(=O)c1ccncc1 [Compound 19b, (E)-5-(3-(4-Chlorophenyl)acryloyl)-N’-isonicotinoyl-2-methoxybenzenesulfonohydrazide] | 242 to 244 | 0.96 | – |
| COc1ccc(C(=O)/C=C/c2cc(OC)c(OC)c(OC)c2)cc1S(=O)(=O)NNC(=O)c1ccncc1 [Compound 19e, (E)-N’-Isonicotinoyl-2-methoxy-5-(3-(3,4,5-trimethoxyphenyl)acryloyl)benzenesulfonohydrazide] | 202 to 204 | 7.7 | – |
| COc1ccc(C(=O)/C=C/c2ccc3c(c2)OCO3)cc1S(=O)(=O)NNC(=O)c1ccncc1 [Compound 19f, (E)-5-(3-(Benzo[d][1,3]dioxol-5-yl)acryloyl)-N’-isonicotinoyl-2-methoxybenzenesulfonohydrazide] | 245 to 248 | 0.48 | – |
| COc1cc(OC)c(S(=O)(=O)NNC(=O)c2ccncc2)cc1C(=O)/C=C/c1ccc(Cl)cc1 [Compound 20b, (E)-5-(3-(4-Chlorophenyl)acryloyl)-N’-isonicotinoyl-2,4-dimethoxybenzenesulfonohydrazide] | 196 to 198 | 20 | – |
| COc1cc(OC)c(S(=O)(=O)NNC(=O)c2ccncc2)cc1C(=O)/C=C/c1ccc(C)cc1 [Compound 20c, (E)-N’-Isonicotinoyl-2,4-dimethoxy-5-(3-(p-tolyl)acryloyl)benzenesulfonohydrazide] | 195 to 197 | 26.9 | – |
| COc1ccc(C2=NN(C=O)C(c3ccc(Cl)cc3)C2)cc1S(N)(=O)=O (stereo not shown) [Compound 22a, 5-(5-(4-Chlorophenyl)-1-formyl-4,5-dihydro-1H-pyrazol-3-yl)-2-methoxybenzenesulfonamide] | 230 to 231 | 2.15 | – |
| COc1cc(OC)c(S(=O)(=O)N(CCCl)CCCl)cc1C1=NN(C=O)C(c2ccc(Cl)cc2)C1 (stereo not shown) [Compound 22d, N,N-bis(2-Chloroethyl)-5-(5-(4-chlorophenyl)-1-formyl-4,5-dihydro-1H-pyrazol-3-yl)-2,4-dimethoxybenzenesulfonamide] | 222 to 224 | – | – |
| COc1cc(OC)c(S(=O)(=O)N(CCCl)CCCl)cc1C1=NN(C(N)=S)C(c2ccc(Cl)cc2)C1 (stereo not shown) [Compound 27e, 3-(5-(N,N-bis(2-Chloroethyl)sulfamoyl)-2,4-dimethoxyphenyl)-5-(4-chlorophenyl)-4,5-dihydro-1H-pyrazole-1-carbothioamide] | 196 to 198 | – | – |
| C[C@H]1COc2c(N3CCN(C)CC3)c(F)cc3c(=O)c(C(=O)O)cn1c23 [Levofloxacin, levofloxacin, reference compound] | – | – | MIC (M. tuberculosis H37Rv): 0.5 µg/mL; FICI Index (M. tuberculosis H37Rv; [2]): 1.25; MIC Combination (M. tuberculosis H37Rv; [2]): 0.5 µg/mL; FICI Index (M. tuberculosis H37Rv; [3]): 1.00; MIC Combination (M. tuberculosis H37Rv; [3]): 0.25 µg/mL |
| CO[C@H]1/C=C/O[C@@]2(C)Oc3c(C)c(O)c4c(O)c(c(/C=N/N5CCN(C)CC5)c(O)c4c3C2=O)NC(=O)/C(C)=C\C=C\[C@H](C)[C@H](O)[C@@H](C)[C@@H](O)[C@@H](C)[C@H](OC(C)=O)[C@@H]1C [RIF, rifampicin, reference compound] | – | – | MIC Combination (M. tuberculosis H37Rv; [2]): 0.048 µg/mL; FICI Index (M. tuberculosis H37Rv; [3]): 0.37 *; MIC Combination (M. tuberculosis H37Rv; [3]): 0.048 µg/mL |
